Measured values taken from patent US9493537B2, “Compounds with reduced ring size for use in diagnosing and treating melanoma, including metastatic melanoma and methods related to same” (STC.UNM, priority 2009, dated 2016).

Tests used:
[1] = In vitro serum stability in mouse serum; type: in vitro ADME; settings: 37° C., 24 h
Procedure: After the incubation, 10 μL of 0.5% EDTA aqueous solution was added into the reaction vial to scavenge potential unbound ^111In^3+ ions. The radiolabeled peptide was purified to single species by Waters RP-HPLC (Milford, Mass.) on a Grace Vydac C-18 reverse phase analytical column (Deerfield, Ill.) using a 20-minute gradient of 18-28% acetonitrile in 20 mM HCl aqueous solution with a flow rate of 1.0 mL/min. Purified peptide sample was purged with N2 gas for 20 minutes to remove the acetonitrile. The pH of final solution was adjusted to 7.4 with 0.1 N NaOH and sterile normal saline for animal studies.
Briefly, 50 μL of ^111InCl3 (37-74 MBq in 0.05 M HCl aqueous solution), 10 μL of 1 mg/mL peptide aqueous solution and 400 μL of 0.5 M NH4OAc (pH 4.5) were added into a reaction vial and incubated at 75° C. for 45 mins. After the incubation, 10 μL of 0.5% EDTA (ethylenediaminetetraacetic acid) aqueous solution was added into the reaction vial to scavenge potential unbound ^111In^3+ ions. The radiolabeled complexes were purified to single species by Waters RP-HPLC (Milford, Mass.) on a Grace Vydac C-18 reverse phase analytical column (Deerfield, Ill.) using the following gradient at a 1 mL/min flowrate. The mobile phase consisted of solvent A (20 mM HCl aqueous solution) and solvent B (100% CH3CN). The gradient was initiated and kept at 82:18 A/B for 3 mins followed by a linear gradient of 82:18 A/B to 72:28 A/B over 20 mins. Then, the gradient was changed from 72:28 A/B to 10:90 A/B over 3 mins followed by an additional 5 mins at 10:90 A/B. Thereafter, the gradient was changed from 10:90 AB to 82:18 AB over 3 mins. Each purified peptide sample was purged with N2 gas for 20 mins to remove the acetonitrile. The pH of the final solution was adjusted to 7.4 with 0.1 N NaOH and sterile saline for animal studies. In vitro serum stability of ^111In-DOTA-GGNle-CycMSHhex and ^111In-DOTA-GENle-CycMSHhex were determined by incubation in mouse serum at 37° C. for 24 h and monitored for degradation by RP-HPLC.

[2] = Metabolites in urine and melanoma by RP-HPLC; type: in vivo, C57 mice; settings: urine, 2 h post-injection
Procedure: The mouse used for the imaging study (2 h post-injection) described above was euthanized and the urine was collected for identifying the metabolites. The urinary sample was centrifuged at 16,000 g for 5 min prior to the HPLC analysis. The radioactive metabolite in the urine was analyzed by injecting aliquots of urine into the HPLC. A 20-minute gradient of 18-28% acetonitrile/20 mM HCl was used for the urine analysis.
Both melanoma and urine were collected from the mouse used for SPECT/CT imaging to analyze the metabolites of ^111In-DOTA-GGNle-CycMSHhex in melanoma and urine. The tumor was homogenized by a VWR homogenizer for 5 mins. Equal volume of ethanol was added into the tumor sample. The tumor sample was vortexed and then centrifuged at 16,000 g for 5 mins. The supernatant was transferred into a glass test tube and purged with N2 gas for 20 mins to remove the ethanol. Aliquots of the supernatant were injected into HPLC. The urinary sample was directly centrifuged at 16,000 g for 5 mins prior to the HPLC analysis. Thereafter, aliquots of the urine were injected into HPLC. The HPLC gradient described above was used for the analyses of metabolites.

- serum stability by RP-HPLC [1]: stable
- urinary metabolites by HPLC [2]: remained intact
SMILES: CCCC[C@H](NC(=O)CN1CCN(CC(=O)O)CCN(CC(=O)O)CCN(CC(=O)O)CC1)C(=O)N[C@H]1CC(=O)NCCCC[C@@H](C(N)=O)NC(=O)[C@H](Cc2c[nH]c3ccccc23)NC(=O)[C@H](CCCNC(=N)N)NC(=O)[C@@H](Cc2ccccc2)NC(=O)[C@H](Cc2c[nH]cn2)NC1=O [^111In-DOTA-Nle-CycMSHhex, metal not drawn]
